# In publication PMC7561186, “Rational design of balanced dual-targeting antibiotics with limited resistance” (PLoS Biology, 2020):
# Where two headings read alike, the source gives them in different places.
# System: S. aureus clinical isolates
# Assay: microbe, parasite or virus in culture
# Assay type: cell-based
# Conditions: Staphylococcus aureus, read-out: MIC
smiles,measurement,setting,value
C[C@H]1COc2c(N3CCN(C)CC3)c(F)cc3c(=O)c(C(=O)O)cn1c23 [Levofloxacin],MIC,"MRSA, S. aureus IHMA 1621638, MRSA / VSSA",0.25 µg/mL
same,MIC,"MRSA, S. aureus IHMA 1622252, MRSA / VSSA",16 µg/mL
same,MIC,"MRSA, S. aureus IHMA 1622527, MRSA / VSSA",0.25 µg/mL
same,MIC,"MRSA, S. aureus IHMA 1666371, MRSA / VSSA",> 64 µg/mL
same,MIC,"MRSA, S. aureus IHMA 1695391, MRSA / VSSA",> 64 µg/mL
same,MIC,"MRSA, S. aureus IHMA 1703428, MRSA / VSSA",0.25 µg/mL
same,MIC,"MRSA, S. aureus IHMA 1720350, MRSA / VSSA",0.25 µg/mL
same,MIC,"MRSA, S. aureus IHMA 1732989, MRSA / VSSA",64 µg/mL
same,MIC,"MRSA, S. aureus IHMA 1742231, MRSA / VSSA",> 64 µg/mL
same,MIC,"MRSA, S. aureus IHMA 1766357, MRSA / VSSA",16 µg/mL
same,MIC,"MSSA / NRS 12 / VISA, S. aureus IHMA 1308244, NRS12, MSSA / VISA",0.5 µg/mL
same,MIC,"MSSA / NRS 13 / VISA, S. aureus IHMA 1308245, NRS13, MSSA / VISA",0.5 µg/mL
same,MIC,"MSSA / NRS 14 / VISA, S. aureus IHMA 1308246, NRS14, MSSA / VISA",0.5 µg/mL
same,MIC,"MSSA / NRS 17 / VISA, S. aureus IHMA 1308247, NRS17, MSSA / VISA",16 µg/mL
same,MIC,"MSSA / NRS 28 / VISA, S. aureus IHMA 1308249, NRS28, MSSA / VISA",32 µg/mL
same,MIC,"MSSA / NRS 52, S. aureus IHMA 1308252, NRS52, MSSA / VSSA* (*Expected VAN intermediate, confirmed VAN susceptible twice), test date 2018-11-07",0.25 µg/mL
same,MIC,"MSSA / USA100 / VRSA, S. aureus IHMA 672236, VRS6, MSSA / VRSA, USA100",32 µg/mL
same,MIC,"MSSA, S. aureus IHMA 1563826, MSSA / VSSA",0.25 µg/mL
same,MIC,"MSSA, S. aureus IHMA 1565492, MSSA / VSSA",0.25 µg/mL
same,MIC,"MSSA, S. aureus IHMA 1569499, MSSA / VSSA",0.25 µg/mL
same,MIC,"MSSA, S. aureus IHMA 1569754, MSSA / VSSA",16 µg/mL
same,MIC,"MSSA, S. aureus IHMA 1574202, MSSA / VSSA",0.25 µg/mL
same,MIC,"MSSA, S. aureus IHMA 1575652, MSSA / VSSA",0.25 µg/mL
same,MIC,"MSSA, S. aureus IHMA 1575779, MSSA / VSSA",0.25 µg/mL
same,MIC,"MSSA, S. aureus IHMA 1576329, MSSA / VSSA",0.25 µg/mL
same,MIC,"MSSA, S. aureus IHMA 1577800, MSSA / VSSA",0.25 µg/mL
same,MIC,"MSSA, S. aureus IHMA 1578560, MSSA / VSSA",0.25 µg/mL
same,MIC,"MSSA, S. aureus IHMA 1580233, MSSA / VSSA",0.25 µg/mL
same,MIC,"MSSA, S. aureus IHMA 1580925, MSSA / VSSA",0.25 µg/mL
same,MIC,"MSSA, S. aureus IHMA 1580955, MSSA / VSSA",0.25 µg/mL
same,MIC,"MSSA, S. aureus IHMA 1582586, MSSA / VSSA",0.5 µg/mL
same,MIC,"MSSA, S. aureus IHMA 1582691, MSSA / VSSA",0.25 µg/mL
same,MIC,"MSSA, S. aureus IHMA 1584230, MSSA / VSSA",0.25 µg/mL
same,MIC,"MSSA, S. aureus IHMA 1587279, MSSA / VSSA",0.25 µg/mL
same,MIC,"MSSA, S. aureus IHMA 1591459, MSSA / VSSA",16 µg/mL
same,MIC,"MSSA, S. aureus IHMA 1592749, MSSA / VSSA",0.25 µg/mL
same,MIC,"MSSA, S. aureus IHMA 1592751, MSSA / VSSA",0.25 µg/mL
same,MIC,"MSSA, S. aureus IHMA 1594297, MSSA / VSSA",0.25 µg/mL
same,MIC,"MSSA, S. aureus IHMA 1597120, MSSA / VSSA",0.25 µg/mL
same,MIC,"MSSA, S. aureus IHMA 1597125, MSSA / VSSA",0.25 µg/mL
same,MIC,"MSSA, S. aureus IHMA 1599157, MSSA / VSSA",0.25 µg/mL
same,MIC,"MSSA, S. aureus IHMA 1599506, MSSA / VSSA",0.25 µg/mL
same,MIC,"MSSA, S. aureus IHMA 1602078, MSSA / VSSA",32 µg/mL
same,MIC,"MSSA, S. aureus IHMA 1604586, MSSA / VSSA",0.25 µg/mL
same,MIC,"MSSA, S. aureus IHMA 1604609, MSSA / VSSA",0.25 µg/mL
same,MIC,"MSSA, S. aureus IHMA 1609919, MSSA / VSSA",0.25 µg/mL
same,MIC,"MSSA, S. aureus IHMA 1622864, MSSA / VSSA",0.25 µg/mL
same,MIC,"MSSA, S. aureus IHMA 1626392, MSSA / VSSA",0.25 µg/mL
same,MIC,"MSSA, S. aureus IHMA 1713793, MSSA / VSSA",0.25 µg/mL
